Target: T1, purified human IDO protein (Homo sapiens, UniProt P14902)
T1 construct: 2 extra amino acids (linker from the BglII cloning site of pQE70); made in house; host or cells: E. coli M15(pREP4) with plasmid pQE70-hIDO
Assay: Enzymatic IDO assay (kynurenine production, absorbance at 480 nm)
Type: biochemical
Conditions: recombinant human IDO; values reported in ranges; read-out: hIDO IC50
Procedure, shortened: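 Inhibitors (final 1 mM to 5 nM, in 50 mM potassium phosphate) preincubated with enzyme 5 min at 25 °C, then 200 μM L-tryptophan added, 15 min at 37 °C. TCA stop and 60 °C hydrolysis to kynurenine, detected with p-dimethylaminobenzaldehyde at 480 nm. IC50 by nonlinear regression.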

T1 sequence (P14902 whole entry P110S/E119G): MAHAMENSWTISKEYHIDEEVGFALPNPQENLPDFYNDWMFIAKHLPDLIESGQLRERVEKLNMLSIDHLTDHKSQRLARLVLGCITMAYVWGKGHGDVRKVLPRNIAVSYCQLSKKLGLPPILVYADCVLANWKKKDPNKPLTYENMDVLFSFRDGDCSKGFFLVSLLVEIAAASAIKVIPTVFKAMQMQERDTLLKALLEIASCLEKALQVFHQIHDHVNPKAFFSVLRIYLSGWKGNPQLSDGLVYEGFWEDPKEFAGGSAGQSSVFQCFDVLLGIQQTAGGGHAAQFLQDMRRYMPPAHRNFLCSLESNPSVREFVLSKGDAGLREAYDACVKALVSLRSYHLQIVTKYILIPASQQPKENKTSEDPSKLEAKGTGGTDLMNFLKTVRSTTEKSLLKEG

Row | Compound | IC50 [µM]
1 | O=C(CC1CCOCC1)Nc1ccc(CCOc2ccccc2-c2c[nH]cn2)c(Cl)c1 [compound 1260, N-(4-(2-(2-(1H-imidazol-4-yl)phenoxy)ethyl)-3-chlorophenyl)-2-(tetrahydro-2H-pyran-4-yl)acetamide] | < 1
2 | COc1cccc(-c2c[nH]cn2)n1 [compound 1009, 2-(1H-imidazol-4-yl)-6-methoxypyridine] | > 100
3 | Clc1ccc(COc2ccccc2-c2c[nH]cn2)cc1Cl [compound 1003, 4-(2-(3,4-dichlorobenzyloxy)phenyl)-1H-imidazole] | 1 to 10
4 | CC(CC1CCCCC1)Oc1ccccc1-c1c[nH]cn1 (stereo not drawn) [compound 1044, 4-(2-(1-cyclohexylpropan-2-yloxy)phenyl)-1H-imidazole] | 10 to 100
5 | c1nc(-c2ccc3cc[nH]c3c2)c[nH]1 [compound 961, 6-(1H-imidazol-4-yl)-1H-indole] | 10 to 100
6 | O=C(Cc1ccc([N+](=O)[O-])cc1)Nc1ccc(CCOc2ccccc2-c2c[nH]cn2)cc1 [compound 1247, N-(4-(2-(2-(1H-imidazol-4-yl)phenoxy)ethyl)phenyl)-2-(4-nitrophenyl)acetamide] | < 1
7 | COc1ccccc1-c1cnco1 [compound 945, 5-(2-methoxyphenyl)oxazole] | > 100
8 | O=C(Cc1ccccc1)N1CCC(CCOc2ccccc2-c2c[nH]cn2)CC1 [compound 1186, 1-(4-(2-(2-(1H-imidazol-4-yl)phenoxy)ethyl)piperidin-1-yl)-2-phenylethanone] | 1 to 10
9 | CCOC(=O)c1ccc(COc2ccccc2-c2c[nH]cn2)cc1 [compound 1029, ethyl 4-((2-(1H-imidazol-4-yl)phenoxy)methyl) benzoate] | 10 to 100
10 | CC(C)(C)C(=O)Nc1ccc(CCOc2ccccc2-c2c[nH]cn2)cc1 [compound 1101, N-(4-(2-(2-(1H-imidazol-4-yl)phenoxy)ethyl)phenyl)pivalamide] | 1 to 10
11 | Oc1cccc(OCCc2ccncc2)c1-c1cnc[nH]1 [compound 1238, 2-(1H-imidazol-5-yl)-3-(2-(pyridin-4-yl)ethoxy) phenol] | 10 to 100
12 | COC(=O)c1ccccc1CCOc1ccccc1-c1c[nH]cn1 [compound 934, methyl 2-(2-(2-(1H-imidazol-4-yl)phenoxy)ethyl) benzoate] | > 100
13 | CC(C)(C)C(=O)Oc1ccc(Br)cc1-c1c[nH]cn1 [compound 967, 4-bromo-2-(1H-imidazol-4-yl)phenyl pivalate] | 1 to 10
14 | Oc1cccc(OCCC2CCCO2)c1-c1cnc[nH]1 (stereo not drawn) [compound 1235, 2-(1H-imidazol-5-yl)-3-(2-(tetrahydrofuran-2-yl)ethoxy)phenol] | 10 to 100

Now from value to molecule:

Row | IC50 [µM] | Compound
15 | 1 to 10 | O=C(Nc1ccc(CCOc2ccccc2-c2c[nH]cn2)cc1)c1cc(=O)[nH]c(=O)[nH]1 [compound 1272]
16 | 10 to 100 | Fc1ccc(OCCc2ccccc2)c(-c2cnc[nH]2)c1 [compound 1292, 5-(5-fluoro-2-phenethoxyphenyl)-1H-imidazole]
17 | < 1 | O=C(Nc1ccc(CCOc2ccccc2-c2c[nH]cn2)c(Cl)c1)NC1CCOCC1 [compound 1265, 1-(4-(2-(2-(1H-imidazol-4-yl)phenoxy)ethyl)-3-chlorophenyl)-3-(tetrahydro-2H-pyran-4-yl)urea]
18 | < 1 | COC(=O)c1cccc(C(=O)Nc2ccc(CCOc3ccccc3-c3c[nH]cn3)cc2)c1 [compound 1261, methyl 3-((4-(2-(2-(1H-imidazol-4-yl)phenoxy)ethyl)phenyl)carbamoyl)benzoate]
19 | 1 to 10 | O=C(O)c1cccc(C(=O)Nc2ccc(CCOc3ccccc3-c3c[nH]cn3)cc2)c1 [compound 1276, 3-((4-(2-(2-(1H-imidazol-4-yl)phenoxy)ethyl)phenyl)carbamoyl)benzoic acid]
20 | 1 to 10 | COC(=O)c1ccc(C(=O)Nc2ccc(CCOc3ccccc3-c3c[nH]cn3)cc2)cc1 [compound 1271, methyl 4-((4-(2-(2-(1H-imidazol-4-yl)phenoxy)ethyl)phenyl)carbamoyl)benzoate]
21 | < 1 | O=C(CC1CCOCC1)Nc1ccc(CCOc2ccccc2-c2c[nH]cn2)c(C(F)(F)F)c1 [compound 1305, N-(4-(2-(2-(1H-imidazol-4-yl)phenoxy)ethyl)-3-(trifluoromethyl)phenyl)-2-(tetrahydro-2H-pyran-4-yl)acetamide]

— patent US8722720B2, “Imidazole derivatives as IDO inhibitors” (NewLink Genetics Corporation, priority 2010, dated 2014)
